Test results from patent publication US8192962B2, “Processes for detecting toxic substances” (Daikin Industries, Ltd., priority 2001, dated 2012).

System: Genes belonging to other category
Assay: DNA chip mRNA expression in yeast, genes belonging to other category (Table 9)
Format: cell-based, Saccharomyces cerevisiae S288C
How it was run: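 S. cerevisiae S288C grown at 25° C in YPD were exposed in log phase for two hours to one toxic chemical at a growth-inhibiting, non-lethal concentration; untreated cells served as control. Poly(A) mRNA was reverse-transcribed with Cy3/Cy5-dUTP and hybridized to a whole-genome yeast DNA chip at 65° C for over 12 hours; values are fluorescence ratios versus untreated.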

## COc1cc(CNC(=O)CCCCC=CC(C)C)ccc1O [(12), 8-methyl-N-vanillyl-6-nonenamide]
Yeast gene YJL116C
  The level of expressed mRNA in the presence of chemical substance/The level of expressed mRNA in the absence of chemical substance: 1.1
Yeast gene YJL164C
  The level of expressed mRNA in the presence of chemical substance/The level of expressed mRNA in the absence of chemical substance: 1.0
Yeast gene YJL210W
  The level of expressed mRNA in the presence of chemical substance/The level of expressed mRNA in the absence of chemical substance: 1.0
Yeast gene YJR004C
  The level of expressed mRNA in the presence of chemical substance/The level of expressed mRNA in the absence of chemical substance: 0.8
Yeast gene YJR049C
  The level of expressed mRNA in the presence of chemical substance/The level of expressed mRNA in the absence of chemical substance: 1.0
Yeast gene YJR086W
  The level of expressed mRNA in the presence of chemical substance/The level of expressed mRNA in the absence of chemical substance: 0.8
Yeast gene YJR091C
  The level of expressed mRNA in the presence of chemical substance/The level of expressed mRNA in the absence of chemical substance: 0.8
Yeast gene YKL008C
  The level of expressed mRNA in the presence of chemical substance/The level of expressed mRNA in the absence of chemical substance: 1.5
Yeast gene YKL013C
  The level of expressed mRNA in the presence of chemical substance/The level of expressed mRNA in the absence of chemical substance: 0.7
Yeast gene YKL039W
  The level of expressed mRNA in the presence of chemical substance/The level of expressed mRNA in the absence of chemical substance: 0.9
Yeast gene YKL041W
  The level of expressed mRNA in the presence of chemical substance/The level of expressed mRNA in the absence of chemical substance: 0.8
Yeast gene YKL093W
  The level of expressed mRNA in the presence of chemical substance/The level of expressed mRNA in the absence of chemical substance: 0.9
Yeast gene YKL096W
  The level of expressed mRNA in the presence of chemical substance/The level of expressed mRNA in the absence of chemical substance: 0.3
Yeast gene YKL097W-A
  The level of expressed mRNA in the presence of chemical substance/The level of expressed mRNA in the absence of chemical substance: 0.7
Yeast gene YKL117W
  The level of expressed mRNA in the presence of chemical substance/The level of expressed mRNA in the absence of chemical substance: 1.0
Yeast gene YKL139W
  The level of expressed mRNA in the presence of chemical substance/The level of expressed mRNA in the absence of chemical substance: 0.8
Yeast gene YKL165C
  The level of expressed mRNA in the presence of chemical substance/The level of expressed mRNA in the absence of chemical substance: 2.4
Yeast gene YKL193C
  The level of expressed mRNA in the presence of chemical substance/The level of expressed mRNA in the absence of chemical substance: 0.9
Yeast gene YKR014C
  The level of expressed mRNA in the presence of chemical substance/The level of expressed mRNA in the absence of chemical substance: 1.1
Yeast gene YKR102W
  The level of expressed mRNA in the presence of chemical substance/The level of expressed mRNA in the absence of chemical substance: 0.8
Yeast gene YLR078C
  The level of expressed mRNA in the presence of chemical substance/The level of expressed mRNA in the absence of chemical substance: 1.0
Yeast gene YLR080W
  The level of expressed mRNA in the presence of chemical substance/The level of expressed mRNA in the absence of chemical substance: 0.8
Yeast gene YLR093C
  The level of expressed mRNA in the presence of chemical substance/The level of expressed mRNA in the absence of chemical substance: 1.0
Yeast gene YLR118C
  The level of expressed mRNA in the presence of chemical substance/The level of expressed mRNA in the absence of chemical substance: 1.0
Yeast gene YLR120C
  The level of expressed mRNA in the presence of chemical substance/The level of expressed mRNA in the absence of chemical substance: 1.6
Yeast gene YLR136C
  The level of expressed mRNA in the presence of chemical substance/The level of expressed mRNA in the absence of chemical substance: 1.3
Yeast gene YLR178C
  The level of expressed mRNA in the presence of chemical substance/The level of expressed mRNA in the absence of chemical substance: 2.2
Yeast gene YLR250W
  The level of expressed mRNA in the presence of chemical substance/The level of expressed mRNA in the absence of chemical substance: 1.0
Yeast gene YLR251W
  The level of expressed mRNA in the presence of chemical substance/The level of expressed mRNA in the absence of chemical substance: 0.8
Yeast gene YLR327C
  The level of expressed mRNA in the presence of chemical substance/The level of expressed mRNA in the absence of chemical substance: 1.4
Yeast gene YLR340W
  The level of expressed mRNA in the presence of chemical substance/The level of expressed mRNA in the absence of chemical substance: 0.9
Yeast gene YLR356W
  The level of expressed mRNA in the presence of chemical substance/The level of expressed mRNA in the absence of chemical substance: 1.5
Yeast gene YLR362W
  The level of expressed mRNA in the presence of chemical substance/The level of expressed mRNA in the absence of chemical substance: 0.8
Yeast gene YLR391W
  The level of expressed mRNA in the presence of chemical substance/The level of expressed mRNA in the absence of chemical substance: 1.0
Yeast gene YLR429W
  The level of expressed mRNA in the presence of chemical substance/The level of expressed mRNA in the absence of chemical substance: 1.1
Yeast gene YMR004W
  The level of expressed mRNA in the presence of chemical substance/The level of expressed mRNA in the absence of chemical substance: 1.0
Yeast gene YMR053C
  The level of expressed mRNA in the presence of chemical substance/The level of expressed mRNA in the absence of chemical substance: 0.9
Yeast gene YMR091C
  The level of expressed mRNA in the presence of chemical substance/The level of expressed mRNA in the absence of chemical substance: 0.8
Yeast gene YMR092C
  The level of expressed mRNA in the presence of chemical substance/The level of expressed mRNA in the absence of chemical substance: 0.9
Yeast gene YMR094W
  The level of expressed mRNA in the presence of chemical substance/The level of expressed mRNA in the absence of chemical substance: 0.9
Yeast gene YMR104C
  The level of expressed mRNA in the presence of chemical substance/The level of expressed mRNA in the absence of chemical substance: 1.0
Yeast gene YMR219W
  The level of expressed mRNA in the presence of chemical substance/The level of expressed mRNA in the absence of chemical substance: 1.5
Yeast gene YMR226C
  The level of expressed mRNA in the presence of chemical substance/The level of expressed mRNA in the absence of chemical substance: 1.1
Yeast gene YMR238W
  The level of expressed mRNA in the presence of chemical substance/The level of expressed mRNA in the absence of chemical substance: 1.0
Yeast gene YMR275C
  The level of expressed mRNA in the presence of chemical substance/The level of expressed mRNA in the absence of chemical substance: 0.7
Yeast gene YMR276W
  The level of expressed mRNA in the presence of chemical substance/The level of expressed mRNA in the absence of chemical substance: 1.2
Yeast gene YMR314W
  The level of expressed mRNA in the presence of chemical substance/The level of expressed mRNA in the absence of chemical substance: 1.0
Yeast gene YNL006W
  The level of expressed mRNA in the presence of chemical substance/The level of expressed mRNA in the absence of chemical substance: 0.7
Yeast gene YNL007C
  The level of expressed mRNA in the presence of chemical substance/The level of expressed mRNA in the absence of chemical substance: 0.7
Yeast gene YNL015W
  The level of expressed mRNA in the presence of chemical substance/The level of expressed mRNA in the absence of chemical substance: 2.8
Yeast gene YNL093W
  The level of expressed mRNA in the presence of chemical substance/The level of expressed mRNA in the absence of chemical substance: 1.1
Yeast gene YNL147W
  The level of expressed mRNA in the presence of chemical substance/The level of expressed mRNA in the absence of chemical substance: 0.8
Yeast gene YNL333W
  The level of expressed mRNA in the presence of chemical substance/The level of expressed mRNA in the absence of chemical substance: 1.0
Yeast gene YNL335W
  The level of expressed mRNA in the presence of chemical substance/The level of expressed mRNA in the absence of chemical substance: 0.8
Yeast gene YNR010W
  The level of expressed mRNA in the presence of chemical substance/The level of expressed mRNA in the absence of chemical substance: 0.8
Yeast gene YNR037C
  The level of expressed mRNA in the presence of chemical substance/The level of expressed mRNA in the absence of chemical substance: 0.7
Yeast gene YNR069C
  The level of expressed mRNA in the presence of chemical substance/The level of expressed mRNA in the absence of chemical substance: 1.2
Yeast gene YOL013C
  The level of expressed mRNA in the presence of chemical substance/The level of expressed mRNA in the absence of chemical substance: 1.1
Yeast gene YOL164W
  The level of expressed mRNA in the presence of chemical substance/The level of expressed mRNA in the absence of chemical substance: 1.1
Yeast gene YOR036W
  The level of expressed mRNA in the presence of chemical substance/The level of expressed mRNA in the absence of chemical substance: 1.2
Yeast gene YOR117W
  The level of expressed mRNA in the presence of chemical substance/The level of expressed mRNA in the absence of chemical substance: 2.5
Yeast gene YOR124C
  The level of expressed mRNA in the presence of chemical substance/The level of expressed mRNA in the absence of chemical substance: 0.9
Yeast gene YOR132W
  The level of expressed mRNA in the presence of chemical substance/The level of expressed mRNA in the absence of chemical substance: 0.7
Yeast gene YOR157C
  The level of expressed mRNA in the presence of chemical substance/The level of expressed mRNA in the absence of chemical substance: 1.3
Yeast gene YOR181W
  The level of expressed mRNA in the presence of chemical substance/The level of expressed mRNA in the absence of chemical substance: 0.8
Yeast gene YOR185C
  The level of expressed mRNA in the presence of chemical substance/The level of expressed mRNA in the absence of chemical substance: 1.5
Yeast gene YOR198C
  The level of expressed mRNA in the presence of chemical substance/The level of expressed mRNA in the absence of chemical substance: 1.5
Yeast gene YOR229W
  The level of expressed mRNA in the presence of chemical substance/The level of expressed mRNA in the absence of chemical substance: 0.8
Yeast gene YOR259C
  The level of expressed mRNA in the presence of chemical substance/The level of expressed mRNA in the absence of chemical substance: 0.8
Yeast gene YOR261C
  The level of expressed mRNA in the presence of chemical substance/The level of expressed mRNA in the absence of chemical substance: 0.9
Yeast gene YOR265W
  The level of expressed mRNA in the presence of chemical substance/The level of expressed mRNA in the absence of chemical substance: 0.8
Yeast gene YOR288C
  The level of expressed mRNA in the presence of chemical substance/The level of expressed mRNA in the absence of chemical substance: 1.4
Yeast gene YOR355W
  The level of expressed mRNA in the presence of chemical substance/The level of expressed mRNA in the absence of chemical substance: 0.9
Yeast gene YOR383C
  The level of expressed mRNA in the presence of chemical substance/The level of expressed mRNA in the absence of chemical substance: 1.1
Yeast gene YPL089C
  The level of expressed mRNA in the presence of chemical substance/The level of expressed mRNA in the absence of chemical substance: 0.7
Yeast gene YPL109C
  The level of expressed mRNA in the presence of chemical substance/The level of expressed mRNA in the absence of chemical substance: 0.9
Yeast gene YPL149W
  The level of expressed mRNA in the presence of chemical substance/The level of expressed mRNA in the absence of chemical substance: 0.9
Yeast gene YPL154C
  The level of expressed mRNA in the presence of chemical substance/The level of expressed mRNA in the absence of chemical substance: 1.5
Yeast gene YPL230W
  The level of expressed mRNA in the presence of chemical substance/The level of expressed mRNA in the absence of chemical substance: 1.0
Yeast gene YPR066W
  The level of expressed mRNA in the presence of chemical substance/The level of expressed mRNA in the absence of chemical substance: 0.8
Yeast gene YPR103W
  The level of expressed mRNA in the presence of chemical substance/The level of expressed mRNA in the absence of chemical substance: 1.2
Yeast gene YPR108W
  The level of expressed mRNA in the presence of chemical substance/The level of expressed mRNA in the absence of chemical substance: 1.0
Yeast gene YPR140W
  The level of expressed mRNA in the presence of chemical substance/The level of expressed mRNA in the absence of chemical substance: 0.8
Yeast gene YPR185W
  The level of expressed mRNA in the presence of chemical substance/The level of expressed mRNA in the absence of chemical substance: 0.8
